Measurements from patent publication US9884823B2, “Oxime ether acetate compound, preparation method therefor and weeding application thereof” (ZHEJIANG UNIVERSITY OF TECHNOLOGY, priority 2014, dated 2018).

Test system: Barnyardgrass
Assay: Culture dish method (general screening)
Format: in vivo, barnyard grass
Conditions: 100 mg/L; 7 days; root
Excerpt: (§1) Culture dish method (general screening): The test targets were radish, cucumber, rape, wheat, sorghum and barnyard grass; the seeds of wheat, sorghum and radish were germinated in advance, and the uniform emerge-germinating seeds were used in the test.

SMILES	inhibition rate, Barnyardgrass Root [%]
CON=C(C(=O)OC)c1ccccc1COc1cccc(-c2ccccn2)c1 [Compound 4]	30
CON=C(C(=O)OC)c1ccccc1COc1ccc(-c2ccccn2)cc1 [Compound 7]	50

Same assay, conditions: 100 mg/L; 7 days; stem

SMILES	inhibition rate, Barnyardgrass Stem [%]
CON=C(C(=O)OC)c1ccccc1COc1cccc(-c2ccccn2)c1 [Compound 4]	30
CON=C(C(=O)OC)c1ccccc1COc1ccc(-c2ccccn2)cc1 [Compound 7]	20

Test system: Cucumber
Assay: Culture dish method (general screening)
Format: in vivo
Conditions: 100 mg/L; 7 days; root
Excerpt: as §1

SMILES	inhibition rate, Cucumber Root [%]
CON=C(C(=O)OC)c1ccccc1COc1cccc(-c2ccccn2)c1 [Compound 4]	30
CON=C(C(=O)OC)c1ccccc1COc1ccc(-c2ccccn2)cc1 [Compound 7]	30

Same assay, conditions: 100 mg/L; 7 days; stem

SMILES	inhibition rate, Cucumber Stem [%]
CON=C(C(=O)OC)c1ccccc1COc1cccc(-c2ccccn2)c1 [Compound 4]	0
CON=C(C(=O)OC)c1ccccc1COc1ccc(-c2ccccn2)cc1 [Compound 7]	0

Test system: Wheat
Assay: Culture dish method (general screening)
Format: in vivo
Conditions: 100 mg/L; 7 days; root
Excerpt: as §1

SMILES	inhibition rate, Wheat Root [%]
CON=C(C(=O)OC)c1ccccc1COc1cccc(-c2ccccn2)c1 [Compound 4]	0
CON=C(C(=O)OC)c1ccccc1COc1ccc(-c2ccccn2)cc1 [Compound 7]	20

Same assay, conditions: 100 mg/L; 7 days; stem

SMILES	inhibition rate, Wheat Stem [%]
CON=C(C(=O)OC)c1ccccc1COc1cccc(-c2ccccn2)c1 [Compound 4]	0
CON=C(C(=O)OC)c1ccccc1COc1ccc(-c2ccccn2)cc1 [Compound 7]	0

Test system: Rape
Assay: Culture dish method (general screening)
Format: in vivo
Conditions: 100 mg/L; 7 days; root
Excerpt: as §1

SMILES	inhibition rate, Rape Root [%]
CON=C(C(=O)OC)c1ccccc1COc1cccc(-c2ccccn2)c1 [Compound 4]	30
CON=C(C(=O)OC)c1ccccc1COc1ccc(-c2ccccn2)cc1 [Compound 7]	60

Same assay, conditions: 100 mg/L; 7 days; stem

SMILES	inhibition rate, Rape Stem [%]
CON=C(C(=O)OC)c1ccccc1COc1cccc(-c2ccccn2)c1 [Compound 4]	0
CON=C(C(=O)OC)c1ccccc1COc1ccc(-c2ccccn2)cc1 [Compound 7]	30

Test system: Radish
Assay: Culture dish method (general screening)
Format: in vivo
Conditions: 100 mg/L; 7 days; root
Excerpt: as §1

SMILES	inhibition rate, Radish Root [%]
CON=C(C(=O)OC)c1ccccc1COc1cccc(-c2ccccn2)c1 [Compound 4]	50
CON=C(C(=O)OC)c1ccccc1COc1ccc(-c2ccccn2)cc1 [Compound 7]	20

Same assay, conditions: 100 mg/L; 7 days; stem

SMILES	inhibition rate, Radish Stem [%]
CON=C(C(=O)OC)c1ccccc1COc1cccc(-c2ccccn2)c1 [Compound 4]	30
CON=C(C(=O)OC)c1ccccc1COc1ccc(-c2ccccn2)cc1 [Compound 7]	0

Test system: Chinese sorghum
Assay: Culture dish method (general screening)
Format: in vivo
Conditions: 100 mg/L; 7 days; root
Excerpt: as §1

SMILES	inhibition rate, Chinese sorghum Root [%]
CON=C(C(=O)OC)c1ccccc1COc1cccc(-c2ccccn2)c1 [Compound 4]	0
CON=C(C(=O)OC)c1ccccc1COc1ccc(-c2ccccn2)cc1 [Compound 7]	0

Same assay, conditions: 100 mg/L; 7 days; stem

SMILES	inhibition rate, Chinese sorghum Stem [%]
CON=C(C(=O)OC)c1ccccc1COc1cccc(-c2ccccn2)c1 [Compound 4]	0
CON=C(C(=O)OC)c1ccccc1COc1ccc(-c2ccccn2)cc1 [Compound 7]	0
